According to PMC9820814, “In Vitro Reconstitution of the Melanin Pathway’s Catalytic Activities Using Tyrosinase Nanoparticles” (International Journal of Molecular Sciences, 2022):

Tests used:
TYRP1 = target: T1, TYRP1 (Homo sapiens, UniProt P17643); test: DHICA oxidation, IQCA absorbance at […] nm; assay type: biochemical; details: 1.5 mM DHICA; pH 7.4; 37 °C; 24 h; no MBTH
T1 construct: recombinant truncated intra-melanosomal domain, C-terminal part with transmembrane helix removed, purified on His-Trap; baculovirus / T. ni larvae; ~59 kDa

TYR = target: T2, TYR (Homo sapiens, UniProt P14679); test: diphenol oxidase activity, dopachrome absorbance at […] nm, Michaelis-Menten fit; assay type: biochemical; details: free enzyme; 10 min incubation; 10 mM NaPO4 pH 7.4; 37 °C; unit printed mM^−1 (sic, mM meant)
T2 construct: recombinant truncated intra-melanosomal domain, C-terminal part with transmembrane helix removed, His-tagged; baculovirus / T. ni larvae
T2 sequence (P14679 19-469 limits assumed): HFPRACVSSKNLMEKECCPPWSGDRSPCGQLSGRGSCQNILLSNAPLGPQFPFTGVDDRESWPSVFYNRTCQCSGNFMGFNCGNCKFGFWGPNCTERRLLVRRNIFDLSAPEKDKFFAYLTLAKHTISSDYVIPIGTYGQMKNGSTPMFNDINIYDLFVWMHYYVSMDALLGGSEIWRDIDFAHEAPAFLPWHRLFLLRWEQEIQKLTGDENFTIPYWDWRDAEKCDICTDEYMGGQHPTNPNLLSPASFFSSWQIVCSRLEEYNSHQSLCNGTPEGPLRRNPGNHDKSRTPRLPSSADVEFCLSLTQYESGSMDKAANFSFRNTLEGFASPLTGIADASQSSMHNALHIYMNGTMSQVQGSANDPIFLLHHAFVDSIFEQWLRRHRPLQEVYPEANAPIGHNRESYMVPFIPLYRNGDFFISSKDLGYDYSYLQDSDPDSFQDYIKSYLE

T1 sequence (P17643 25-477 limits assumed): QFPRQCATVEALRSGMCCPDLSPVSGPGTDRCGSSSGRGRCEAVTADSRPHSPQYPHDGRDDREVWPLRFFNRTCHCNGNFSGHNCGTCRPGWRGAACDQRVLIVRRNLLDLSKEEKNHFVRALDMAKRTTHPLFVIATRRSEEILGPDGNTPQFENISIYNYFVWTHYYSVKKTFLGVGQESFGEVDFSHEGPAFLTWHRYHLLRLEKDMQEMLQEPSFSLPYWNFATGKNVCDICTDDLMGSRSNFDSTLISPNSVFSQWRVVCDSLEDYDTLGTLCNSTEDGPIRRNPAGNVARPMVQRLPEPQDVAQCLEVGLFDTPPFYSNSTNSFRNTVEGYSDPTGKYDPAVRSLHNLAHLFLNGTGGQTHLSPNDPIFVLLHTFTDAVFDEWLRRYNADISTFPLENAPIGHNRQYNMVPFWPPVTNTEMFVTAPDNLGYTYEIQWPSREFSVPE

| Structure (SMILES) | DHICA oxidation, IQCA absorbance at 560 nm (TYRP1) | Km (mM^-1) / Tyr (TYR) [mM⁻¹] |
| --- | --- | --- |
| O=C(O)c1cc2cc(O)c(O)cc2[nH]1 [DHICA] | the spectrum of the reaction shows the formation of a peak corresponding to a new product |  |
| N[C@@H](Cc1ccc(O)c(O)c1)C(=O)O [L-DOPA] |  | 0.241 ± 0.069 |
